We go through seven molecules from patent US9029410B2, “Pharmaceutical compositions for the treatment of movement disorders” (Sarah Herzog Memorial Hospital Ezrath Nashim Association, priority 2003, dated 2015).

One data set concerns monkeys. To be noted: NR2A antagonist; cited from earlier work.
In data set [1] the test system is patients. To be noted: Tsai and Coyle '875; low baseline levels; cited from earlier work.
Data set [2] concerns neuroleptic sensitized monkeys. To be noted: cited from earlier work.
Data set [3] relates to schizophrenia patients. The data set is described as follows: PANSS, crossover trials of D-cycloserine (pooled). The format is in vivo, human. Conditions: mean ± sd. On the procedure:
(§1) Patients fulfilled criteria for treatment resistance used in previous trials of glycine and had been receiving stable doses of olanzapine or risperidone for at least 3 months before study entry. Medication doses remained fixed throughout the study.
(§2) Methods for this study are the same as in example 1, except that D-cycloserine (50 mg/d) was used for treatment. As previously, outcome was assessed using the PANSS, SAS and AIMS. In addition, the Schedule for Assessment of Negative Symptoms (SANS) was used to provide further assessment of negative symptoms. Data are pooled from two previously published studies (Heresco-Levy et al., 1998, 2002). Because analyses were confirmatory, one-tailed statistics were used throughout.

Data set [4] has as its system schizophrenia patients. The data set is described as follows: SAS, crossover trials of D-cycloserine (pooled). The format is in vivo, human. Here is the method: as §1, §2
In data set [5] the test system is schizophrenia patients. The data set is described as follows: AIMS, crossover trials of D-cycloserine (pooled). The format is in vivo, human. Here is the method: as §1, §2
The test system of data set [6] is MPTP-treated monkeys. To be noted: low dose (320 or 1000 mg/kg as printed); cited from earlier work.
Data set [7] relates to MPTP-treated monkeys. To be noted: cited from earlier work.
The subject of a further data set is Sprague-Dewley rats. The data set is described as follows: Effects of chronic haloperidol treatment on motor activity. The format is in vivo, rat. Here is the method:
Rats were weighed biweekly throughout the study. Room temperature was maintained at 22±2° C.

Data set [8] has as its system schizophrenia patients. The data set is described as follows: PANSS, crossover trial of D-serine. The format is in vivo, human. Also on record: PANSS Positive Symptoms, treatment week 6: dose or concentration left out as unconfirmed. To be noted: mean ± sd. The source says:
(§3) The study was approved by the appropriate institutional review boards. Seventeen stable inpatients meeting DSM-IV criteria for schizophrenia and free of other axis I diagnoses or significant medical illness were enrolled in the study. Diagnosis was established on the basis of semistructured psychiatric interviews, review of all available medical records, and confirmation by two board-certified psychiatrists. […] Medication doses remained fixed throughout the study.
(§4) After complete description of the study, written informed consent was obtained from all participating patients. The double-blind, placebo-controlled, crossover study consisted of two random-order 6-week treatment arms (glycine 0.8 g/kg/day, or placebo), separated by a 2-week adjuvant treatment washout. Patients were assessed biweekly with the Positive and Negative Syndrome Scale (PANSS), Brief Psychiatric Rating Scale (BPRS), Simpson-Angus Rating Scale (SAS), and Abnormal Involuntary Movement Scale (AIMS) performed by one trained research psychiatrist, as previously described (3). CBC and SMA-20 measures were assessed biweekly throughout the study. Trough glycine and serine serum levels were assessed at baseline and at the end of the two treatment phases. Data were analyzed by repeated measures ANOVA with within group factor of study phase (glycine/placebo) and time within study phase (pre/post), and between group factor of treatment order.
(§5) Methods: Methods for this study are the same as in example 1, except that D-serine ([…]=approx. 2.1 g/day) was used for treatment. As previously, outcome was assessed using the PANSS, SAS and AIMS. In addition, the Schedule for Assessment of Negative Symptoms (SANS) was used to provide further assessment of negative symptoms. This represents an interim analysis of an ongoing study. Data were analyzed by between-treatment t-test of change scores during D-serine or placebo treatment. Data are analyzed only from subjects (n=23) who completed both study phases.

The test system of data set [9] is schizophrenia patients. The data set is described as follows: SANS, crossover trial of D-serine. The format is in vivo, human.
From the text: as §3
as §4, with “The double-blind, placebo-controlled, crossover study consisted of two random-order 6-week treatment arms (glycine 0.8 g/kg/day, or placebo), separated by a 2-week adjuvant treatment washout.” left out, “order. […]” for “order.”

In data set [10] the test system is schizophrenia patients. The data set is described as follows: SAS, crossover trial of D-serine. The format is in vivo, human.
From the text: as §3, §4, §5

For data set [11], the system named is schizophrenia patients. The data set is described as follows: AIMS, crossover trial of D-serine. The format is in vivo, human.
From the text: as §3, §4, §5

The test system of data set [12] is patients. Conditions: D-serine combined with clozapine; Tsai et al., 1999; cited from earlier work.
Where [13] appears, read: D-cycloserine 50 mg/d, week 6, n=26.
Setting [14] is: D-cycloserine 50 mg/d, week 6 minus week 0.
[15] abbreviates: D-cycloserine phase, week 0, n=26.
Where [16] appears, read: D-cycloserine 50 mg/d, week 6, mean ± sd, n=26.
The mark [17] stands for this setting: D-cycloserine 50 mg/d, week 6 minus week 0, mean ± sd.
The mark [18] stands for this setting: D-cycloserine phase, week 0, mean ± sd, n=26.
The mark [19] stands for this setting: D-serine phase, week 0, mean ± sd, n=23.
Where [20] appears, read: D-serine, week 6, mean ± sd, n=23.
Where [21] appears, read: D-serine, week 6 minus week 0, mean ± sd.
The mark [22] stands for this setting: during D-serine treatment, 6 weeks.

`N[C@H](CC(=O)CP(=O)(O)O)C(=O)O` [MDL 100,453]: the “Effect on symptoms of dyskinesia” value in the data set on monkeys is listed as “worsening symptoms of dyskinesia”.
Regarding `CNCC(=O)O` [N-methylglycine], the “Changes in SAS or AIMS scores” value in the data set with patients [1] is “no significant changes”.
As for `CNC1(c2ccccc2Cl)CCCCC1=O` (centres unmarked) [ketamine], the “Motor effects of administration” value in data set [2] is “induces bradykinesia, dystonia and salivation”.
Turning to `C[C@@H](N)C(=O)O` [D-alanine], the “Changes in SAS or AIMS scores” value in the data set with patients [1] is listed as “no significant changes”.
Regarding `N[C@@H]1CONC1=O` [D-cycloserine], in the data set on schizophrenia patients [3] (setting [13]), the “PANSS General Psychopathaology, week 6 within treatment phase” value is listed as 53.8 ± 8.2; the “PANSS Negative symptoms, week 6 within treatment phase” value is given as 31.4 ± 6.5; the “PANSS Positive symptoms, week 6 within treatment phase” value is reported as 24.6 ± 4.1; the “PANSS Total Symptoms, week 6 within treatment phase” value is 109.7 ± 15.8. In the data set on schizophrenia patients [3] (setting [14]), the “PANSS General Psychopathaology, Ä symptoms” value is listed as −4.9 ± 6.2; the “PANSS Negative symptoms, Ä symptoms” value is given as −3.2 ± 2.5; the “PANSS Positive symptoms, Ä symptoms” value is −2.1 ± 2.6; the “PANSS Total Symptoms, Ä symptoms” value is given as −10.2 ± 8.9. In the data set with schizophrenia patients [3] (setting [15]), the “PANSS General Psychopathaology, week 0 within treatment phase” value turned out to be 58.7 ± 8.4; the “PANSS Negative symptoms, week 0 within treatment phase” value turned out to be 34.6 ± 6.2; the “PANSS Positive symptoms, week 0 within treatment phase” value amounted to 26.7 ± 4.5; the “PANSS Total Symptoms, week 0 within treatment phase” value turned out to be 120 ± 16.7. Further, the “Effect on Parkinsonian symptoms (SAS)” value in the data set with schizophrenia patients [4] (D-cycloserine 50 mg/d vs placebo, t=1.77, one tailed) is reported as “nearly significant improvement”. Also, the “SAS, week 6 within treatment phase” value in the data set with schizophrenia patients [4] (setting [16]) is on record as 3.6 ± 2.1. Moreover, the “SAS, Ä symptoms” value in the data set with schizophrenia patients [4] (setting [17]) is given as −0.7 ± 1.7. Also, the “SAS, week 0 within treatment phase” value in the data set on schizophrenia patients [4] (setting [18]) is 4.3 ± 2.4. For the same molecule, the “Effect on dyskinetic symptoms (AIMS)” value with schizophrenia patients [5] (D-cycloserine 50 mg/d vs placebo, t=2.21, p<0.025, one tailed) was “significant reduction”. In addition, in the data set with schizophrenia patients [5] (setting [16]), the “AIMS, week 6 within treatment phase” value is recorded as 3.9 ± 3. For the same molecule, the “AIMS, Ä symptoms” value in the data set on schizophrenia patients [5] (setting [17]) is −0.8 ± 1.3. The “AIMS, week 0 within treatment phase” value in the data set on schizophrenia patients [5] (setting [18]) stood at 4.7 ± 3.1. Further, the “Variable delayed-response task (VDR) performance” value in the data set with MPTP-treated monkeys [6] is recorded as “significantly improved”. For the same molecule, the “Bradykinesia, tremor or other core Parkinsonian symptoms” value in the data set with MPTP-treated monkeys [7] is “did not show improvement”.
As for `CCCCCCCCCC(=O)OC1(c2ccc(Cl)cc2)CCN(CCCC(=O)c2ccc(F)cc2)CC1` [haloperidol, haloperidol decanoate], the “Number of VCM episodes relative to rats that had received placebo” value in the data set on Sprague-Dewley rats (haloperidol decanoate i.m. every four weeks, 24 weeks, p<0.001) is listed as “approximately 4 fold”. The “Mean time spent in immobility” value with Sprague-Dewley rats (haloperidol for 24 weeks, 5 minute observation interval, placebo 53.0±12.7) is 103.2 ± 7.8 s. The “Number of rearing episodes vs placebo” value with Sprague-Dewley rats (haloperidol for 24 weeks, p<0.0001) is on record as “significantly lower”. In addition, the “Number of grooming episodes vs controls” value in the data set on Sprague-Dewley rats (haloperidol for 24 weeks, p<0.17) is listed as “did not differ”.
In the case of `N[C@H](CO)C(=O)O` [D-serine], in the data set with schizophrenia patients [8] (D-serine phase, week 0, n=23), the “PANSS Cognitive symptoms, treatment week 0” value is on record as 8.5 ± 2.2; the “PANSS Depression, treatment week 0” value was 5.3 ± 2.6; the “PANSS Excitement, treatment week 0” value is 1.6 ± 1.5; the “PANSS Negative symptoms, treatment week 0” value is recorded as 3.9 ± 4.0. Besides, in the data set on schizophrenia patients [8] (D-serine phase, week 0, n=23), the “PANSS Positive Symptoms, treatment week 0” value stood at 4.2 ± 2.3. In addition, in the data set on schizophrenia patients [8] (D-serine, week 6, n=23), the “PANSS Cognitive symptoms, treatment week 6” value worked out at 17.1 ± 2.7; the “PANSS Depression, treatment week 6” value came out at 13.8 ± 2.2; the “PANSS Excitement, treatment week 6” value amounted to 10.9 ± 1.4; the “PANSS Negative symptoms, treatment week 6” value was determined as 21.0 ± 3.5. In the data set with schizophrenia patients [8] (D-serine, week 6, n=23), the “PANSS Positive Symptoms, treatment week 6” value is listed as 13.0 ± 2.3. Further, in the data set on schizophrenia patients [8] (D-serine, week 6 minus week 0), the “PANSS Cognitive symptoms, Δ symptoms” value is −1.4 ± 1.3; the “PANSS Depression, Δ symptoms” value was −1.5 ± 1.8; the “PANSS Excitement, Δ symptoms” value was −0.7 ± 1.2; the “PANSS Negative symptoms, Δ symptoms” value is −2.9 ± 1.9. The “PANSS Positive Symptoms, Δ symptoms” value with schizophrenia patients [8] (D-serine, week 6 minus week 0) is listed as −1.2 ± 1.1. The “SANS Total (with globals), treatment week 6” value with schizophrenia patients [9] (week 6, mean ± sd, n=23) is 51.9 ± 8.0. The “SANS Total (with globals), Δ symptoms” value with schizophrenia patients [9] (week 6 minus week 0, mean ± sd) is −9.0 ± 4.3. Besides, the “SAS, treatment week 0” value with schizophrenia patients [10] (setting [19]) stood at 4.2 ± 1.4. Besides, in the data set on schizophrenia patients [10] (setting [20]), the “SAS, treatment week 6” value worked out at 2.4 ± 0.8. Besides, in the data set on schizophrenia patients [10] (setting [21]), the “SAS, Δ symptoms” value is recorded as −1.8 ± 1.3. For the same molecule, in the data set on schizophrenia patients [10] (setting [22]), the “Decline in Parkinsonian symptoms as rated by the SAS” value is reported as 42%. Further, in the data set with schizophrenia patients [11] (setting [19]), the “AIMS, treatment week 0” value was 3.0 ± 0.8. Further, in the data set with schizophrenia patients [11] (setting [20]), the “AIMS, treatment week 6” value is reported as 1.6 ± 1.2. Also, the “AIMS, Δ symptoms” value with schizophrenia patients [11] (setting [21]) is given as −1.4 ± 1.1. Further, the “Decline in dyskinetic symptoms as rated by the AIMS” value in the data set with schizophrenia patients [11] (setting [22]) is listed as 50%. Further, the “Change in SAS or AIMS scores” value in the data set with patients [12] is “did not find significant change”.
